Test results published in PubChem BioAssay AID1919016 (Molecular Pharmacology Branch, DTP, NCI, 2023).

Tested on: NCI-H196 complex spheroid growth, percent test/control
Assay: Anticancer human tumor NCI-H196 cell line growth inhibition [AhR];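 also: seven days of drug exposure starting three days after plating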;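 as to viability, T/C: 100% = DMSO vehicle control wells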
Conditions: for IC50: curve of first compound; for viability, T/C: stronger effect = lower value
Method in brief: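 Complex tumor spheroids co-cultured with HUVEC and human MSC stroma; AhR antagonists tested in combination with standard-of-care and investigational agents. Top concentration at or near clinical Cmax (else 10 microM), half-log dilutions; growth expressed as percent test/control.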

[1] = second compound 0.1 µM, first compound 0.0316 µM
[2] = second compound 0.1 µM, first compound 0.1 µM
[3] = second compound 0.316 µM, first compound 0.0316 µM
[4] = second compound 0.316 µM, first compound 0.1 µM
[5] = second compound 1 µM, first compound 0.0316 µM
[6] = second compound 1 µM, first compound 0.1 µM
[7] = second compound 3.16 µM, first compound 0.0316 µM
[8] = second compound 3.16 µM, first compound 0.1 µM
[9] = second compound 10 µM, first compound 0.0316 µM
[10] = second compound 10 µM, first compound 0.1 µM

SMILES: CC1(C)CCC(CN2CCN(c3ccc(C(=O)NS(=O)(=O)c4ccc(NCC5CCOCC5)c([N+](=O)[O-])c4)c(Oc4cnc5[nH]ccc5c4)c3)CC2)=C(c2ccc(Cl)cc2)C1 + Cc1cncc(-c2nc(NCCc3c[nH]c4ccccc34)c3ncn(C(C)C)c3n2)c1
- IC50 (second compound 0.1 µM): > 10 µM
- IC50 (second compound 0.316 µM): > 10 µM
- IC50 (second compound 1 µM): > 10 µM
- IC50 (second compound 3.16 µM): > 10 µM
- IC50 (second compound 10 µM): > 10 µM
- viability, T/C [1]: 98.3%
- viability, T/C [2]: 97.8%
- viability, T/C (second compound 0.1 µM, first compound 0.316 µM): 89.4%
- viability, T/C (second compound 0.1 µM, first compound 1 µM): 98.6%
- viability, T/C (second compound 0.1 µM, first compound 3.16 µM): 96.5%
- viability, T/C (second compound 0.1 µM, first compound 10 µM): 107%
- viability, T/C [3]: 106%
- viability, T/C [4]: 96%
- viability, T/C (second compound 0.316 µM, first compound 0.316 µM): 95.7%
- viability, T/C (second compound 0.316 µM, first compound 1 µM): 93.1%
- viability, T/C (second compound 0.316 µM, first compound 3.16 µM): 105%
- viability, T/C (second compound 0.316 µM, first compound 10 µM): 108%
- viability, T/C [5]: 91.7%
- viability, T/C [6]: 101%
- viability, T/C (second compound 1 µM, first compound 0.316 µM): 108%
- viability, T/C (second compound 1 µM, first compound 1 µM): 97.1%
- viability, T/C (second compound 1 µM, first compound 3.16 µM): 103%
- viability, T/C (second compound 1 µM, first compound 10 µM): 105%
- viability, T/C [7]: 115%
- viability, T/C [8]: 105%
- viability, T/C (second compound 3.16 µM, first compound 0.316 µM): 105%
- viability, T/C (second compound 3.16 µM, first compound 1 µM): 108%
- viability, T/C (second compound 3.16 µM, first compound 3.16 µM): 95%
- viability, T/C (second compound 3.16 µM, first compound 10 µM): 104%
- viability, T/C [9]: 87.8%
- viability, T/C [10]: 97.9%
- viability, T/C (second compound 10 µM, first compound 0.316 µM): 107%
- viability, T/C (second compound 10 µM, first compound 1 µM): 118%
- viability, T/C (second compound 10 µM, first compound 3.16 µM): 105%
- viability, T/C (second compound 10 µM, first compound 10 µM): 101%

SMILES: CCN(c1cc(-c2ccc(CN3CCOCC3)cc2)cc(C(=O)NCc2c(C)cc(C)[nH]c2=O)c1C)C1CCOCC1 + Cc1cncc(-c2nc(NCCc3c[nH]c4ccccc34)c3ncn(C(C)C)c3n2)c1
- IC50 (second compound 0.1 µM): > 3 µM
- IC50 (second compound 0.316 µM): > 3 µM
- IC50 (second compound 1 µM): > 3 µM
- IC50 (second compound 3.16 µM): > 3 µM
- IC50 (second compound 10 µM): > 3 µM
- viability, T/C (second compound 0.1 µM, first compound 0.00949 µM): 103%
- viability, T/C (second compound 0.1 µM, first compound 0.03 µM): 97.3%
- viability, T/C (second compound 0.1 µM, first compound 0.0949 µM): 97.7%
- viability, T/C (second compound 0.1 µM, first compound 0.3 µM): 96.9%
- viability, T/C (second compound 0.1 µM, first compound 0.949 µM): 99.3%
- viability, T/C (second compound 0.1 µM, first compound 3 µM): 97.3%
- viability, T/C (second compound 0.316 µM, first compound 0.00949 µM): 106%
- viability, T/C (second compound 0.316 µM, first compound 0.03 µM): 98.8%
- viability, T/C (second compound 0.316 µM, first compound 0.0949 µM): 102%
- viability, T/C (second compound 0.316 µM, first compound 0.3 µM): 92.4%
- viability, T/C (second compound 0.316 µM, first compound 0.949 µM): 99%
- viability, T/C (second compound 0.316 µM, first compound 3 µM): 98.8%
- viability, T/C (second compound 1 µM, first compound 0.00949 µM): 103%
- viability, T/C (second compound 1 µM, first compound 0.03 µM): 101%
- viability, T/C (second compound 1 µM, first compound 0.0949 µM): 111%
- viability, T/C (second compound 1 µM, first compound 0.3 µM): 97%
- viability, T/C (second compound 1 µM, first compound 0.949 µM): 92.2%
- viability, T/C (second compound 1 µM, first compound 3 µM): 93.3%
- viability, T/C (second compound 3.16 µM, first compound 0.00949 µM): 109%
- viability, T/C (second compound 3.16 µM, first compound 0.03 µM): 105%
- viability, T/C (second compound 3.16 µM, first compound 0.0949 µM): 114%
- viability, T/C (second compound 3.16 µM, first compound 0.3 µM): 106%
- viability, T/C (second compound 3.16 µM, first compound 0.949 µM): 104%
- viability, T/C (second compound 3.16 µM, first compound 3 µM): 121%
- viability, T/C (second compound 10 µM, first compound 0.00949 µM): 86.9%
- viability, T/C (second compound 10 µM, first compound 0.03 µM): 81.2%
- viability, T/C (second compound 10 µM, first compound 0.0949 µM): 86.5%
- viability, T/C (second compound 10 µM, first compound 0.3 µM): 81.1%
- viability, T/C (second compound 10 µM, first compound 0.949 µM): 87.2%
- viability, T/C (second compound 10 µM, first compound 3 µM): 90.1%

SMILES: Cn1ncnc1C1c2n[nH]c(=O)c3cc(F)cc(c23)NC1c1ccc(F)cc1 (stereo not given) + Cc1cncc(-c2nc(NCCc3c[nH]c4ccccc34)c3ncn(C(C)C)c3n2)c1
- IC50 (second compound 0.1 µM): > 0.1 µM
- IC50 (second compound 0.316 µM): > 0.1 µM
- IC50 (second compound 1 µM): > 0.1 µM
- IC50 (second compound 3.16 µM): > 0.1 µM
- IC50 (second compound 10 µM): > 0.1 µM
- viability, T/C (second compound 0.1 µM, first compound 0.000316 µM): 110%
- viability, T/C (second compound 0.1 µM, first compound 0.001 µM): 101%
- viability, T/C (second compound 0.1 µM, first compound 0.00316 µM): 114%
- viability, T/C (second compound 0.1 µM, first compound 0.01 µM): 104%
- viability, T/C [1]: 99.3%
- viability, T/C [2]: 96%
- viability, T/C (second compound 0.316 µM, first compound 0.000316 µM): 112%
- viability, T/C (second compound 0.316 µM, first compound 0.001 µM): 98.6%
- viability, T/C (second compound 0.316 µM, first compound 0.00316 µM): 110%
- viability, T/C (second compound 0.316 µM, first compound 0.01 µM): 107%
- viability, T/C [3]: 110%
- viability, T/C [4]: 97.8%
- viability, T/C (second compound 1 µM, first compound 0.000316 µM): 103%
- viability, T/C (second compound 1 µM, first compound 0.001 µM): 102%
- viability, T/C (second compound 1 µM, first compound 0.00316 µM): 109%
- viability, T/C (second compound 1 µM, first compound 0.01 µM): 111%
- viability, T/C [5]: 109%
- viability, T/C [6]: 104%
- viability, T/C (second compound 3.16 µM, first compound 0.000316 µM): 111%
- viability, T/C (second compound 3.16 µM, first compound 0.001 µM): 113%
- viability, T/C (second compound 3.16 µM, first compound 0.00316 µM): 126%
- viability, T/C (second compound 3.16 µM, first compound 0.01 µM): 96.1%
- viability, T/C [7]: 108%
- viability, T/C [8]: 103%
- viability, T/C (second compound 10 µM, first compound 0.000316 µM): 94.5%
- viability, T/C (second compound 10 µM, first compound 0.001 µM): 97.8%
- viability, T/C (second compound 10 µM, first compound 0.00316 µM): 91.7%
- viability, T/C (second compound 10 µM, first compound 0.01 µM): 112%
- viability, T/C [9]: 96.6%
- viability, T/C [10]: 104%
